Laboratory results: PMC8151276, “An Integrated Approach toward NanoBRET Tracers for Analysis of GPCR Ligand Engagement” (Molecules, 2021)

Target: T1, MCHR2 (Homo sapiens, UniProt Q969V1)
T1 construct: purchased Promega (in-house HiBiT-GPCR construct library, NanoBRET)
Assay: NanoBRET screen HiBiT-MCHR2 in HEK293
Assay type: binding
Method: Each tracer candidate was screened across the entire library of HiBiT-GPCR constructs using NanoBRET as the detection modality. As depicted in Figure 4A, the specificity of interactions was evaluated through decrease in BRET due to competitive displacement of a bound tracer by excess parental compound. Each tracer was analyzed for binding to each HiBiT-GPCR fusion in the absence and in the presence of competing parental compound. Briefly, HEK293 cells were transfected with HiBiT-GPCR constructs diluted into promoterless DNA to reduce expression and maximize translocation to the cell surface. Each tracer candidate was then screened at concentrations of 1 μM and 0.1 μM across cells expressing these fusions. Cells were treated for 1.5 h with tracer either alone or in the presence of 20 μM competing parental compound (i.e., control). BRET was measured upon addition of purified LgBiT and subsequent complementation with HiBiT genetically fused to a GPCR. The specificity of interactions was assessed through a decrease in BRET signal due to competitive displacement of the bound tracer. To further gauge the robustness of these interactions, the fold response over the control (i.e., BRETtracer/BRETcontrol) was calculated. We chose a 1.5-fold response, which translates to ≥7-fold signal over noise as the minimal threshold required to score an interaction as positive.
HiBiT-GPCR DNA constructs were diluted in 10 mM Tris pH 8 to a final concentration of 0.01 μg/μL, arrayed in 96-well plates and stored at −20 °C. For transfection, HEK293 cells were suspended in Opti-MEM (without phenol red) supplemented with 2% fetal bovine serum (Seradigm) and 100 units/mL penicillin–streptomycin (Gibco) at a final concentration of 220,000 cells/mL and dispensed into white 96-well plates at 90 μL/well. Subsequent transfections and screens were carried using an Agilent Bravo Automated Liquid Handling Platform. First, the 96-well HiBiT DNA arrays were diluted 25-fold in Opti-MEM (without serum or phenol red) to a final concentration of 0.0004 μg/μL and 20 μL of the diluted DNAs were transferred into new 96-well plates. Next, promoterless carrier DNA (1 μg/μL) was diluted 25-fold (0.04 μg/μL) and then dispensed into the diluted arrays at 20 μL/well. Following brief mixing, Viafect transfection reagent (Promega) diluted 16-fold into Opti-MEM was dispensed into the plates at 40 μL/well. After mixing by pipetting, plates were incubated for 10 min on the pipetting station deck. The DNA-transfection reagent complexes were then added to plates containing cells. To facilitate the screen, 10 μL of DNA-transfection reagent complexes were added in duplicates to the top 4 and bottom 4 rows, resulting in two identical 48-well arrays per plate. Plates with transfected cells were incubated for 18–20 h at 37 °C/5% CO2. A screen of each tracer across the entire library using two different concentrations requires duplicate plates of transfected cells. Depending on the number of tracers being screened, transfections can be scaled up using the same ratios. The next day, for each tracer, four 20× screening solutions in tracer dilution buffer (Promega) were prepared: two duplicates at final concentration of 20 μM and two duplicates at a final concentration of 2 μM. […] The four resulting solutions were diluted 4-fold in Opti-MEM without serum or phenol red to generate 5× solutions (5 µM and 0.5 µM tracer +/− 100 μM competing compound). To screen the library, a BioTek MultiFlo FX liquid dispenser was used to dispense 22.5 µL of tracer solution to the top 4 rows and 22.5 µL tracer + competing compound solution to the 4 bottom rows. Plates were briefly mixed on an orbital shaker and incubated for 1.5 h at room temperature. […] Plates were briefly mixed on an orbital shaker and incubated for 15 min to allow complementation.

T1 sequence (Q969V1 whole entry): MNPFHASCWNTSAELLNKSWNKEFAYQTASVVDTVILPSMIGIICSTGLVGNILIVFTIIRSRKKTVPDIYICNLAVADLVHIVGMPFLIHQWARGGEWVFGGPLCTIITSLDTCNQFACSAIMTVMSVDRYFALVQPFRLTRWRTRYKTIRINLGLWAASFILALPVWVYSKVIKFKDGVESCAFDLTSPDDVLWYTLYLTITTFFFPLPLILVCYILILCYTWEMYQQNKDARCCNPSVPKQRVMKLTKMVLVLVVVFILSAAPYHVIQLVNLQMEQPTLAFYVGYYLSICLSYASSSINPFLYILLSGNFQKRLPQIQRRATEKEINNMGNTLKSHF

Structure (SMILES)	NanoBRET Fold Response (MCHR2, tracer 0.1μM)	NanoBRET Fold Response (MCHR2, tracer 1μM)	also measured
CCOC(=O)c1cc(C#N)c(N2CCC(C(=O)NS(=O)(=O)Cc3ccccc3/C=C/C(=O)NCCNC(=O)CCc3ccc4n3[B-](F)(F)[N+]3=C(c5ccc[nH]5)C=CC3=C4)CC2)nc1C [AZD1283-1-NB590]			NanoBRET Fold Response (MCHR2, 0.1μM): 1.04; NanoBRET Fold Response (MCHR2, 1μM): 1.06
N#CN=C(NCCCOc1cccc(CN2CCCCC2)c1)NCCNC(=O)CCOCCOCCOCCOCCNC(=O)CCc1ccc2n1[B-](F)(F)[N+]1=C(c3ccc[nH]3)C=CC1=C2 [Aminopotentidine-2-NB590]	0.97	1.03	
CN(C)CCC=C1c2ccccc2CCc2ccc(C(=O)NCCNC(=O)CCOCCOCCOCCOCCNC(=O)CCc3ccc4n3[B-](F)(F)[N+]3=C(c5ccc[nH]5)C=CC3=C4)cc21 [Amitriptyline-a-2-NB590]			NanoBRET Fold Response (tracer at 0.1μM): 0.97; NanoBRET Fold Response (tracer at 1μM): 1.01
CN(C)CCC=C1c2ccccc2CCc2ccc(C(=O)NCCNC(=O)CCOCCOCCOCCOCCNC(=O)CCc3ccc4n3[B-](F)(F)[N+]3=C(c5ccc[nH]5)C=CC3=C4)cc21 [Amitriptyline-b-2-NB590]			NanoBRET Fold Response (tracer at 0.1μM, listed as amitriptyline-b-2-NB590): 0.85; NanoBRET Fold Response (tracer at 1μM, listed as amitriptyline-b-2-NB590): 0.90
COc1ccc2c(n1)c(CCNC(C)=O)cn2CCNC(=O)CCc1ccc2n1[B-](F)(F)[N+]1=C(c3ccc[nH]3)C=CC1=C2 [Azamelatonin-1-NB590]			NanoBRET Fold Response (0.1μM tracer): 1.45; NanoBRET Fold Response (1μM tracer): 0.86
COc1ccc2[nH]c(-c3ccc(CNC(=O)CCOCCOCCOCCOCCNC(=O)CCc4ccc5n4[B-](F)(F)[N+]4=C(c6ccc[nH]6)C=CC4=C5)cc3)c(CCNC(C)=O)c2n1 [AzomelatoninICO9-2-NB590]			NanoBRET Fold Response (0.1μM tracer): 1.29; NanoBRET Fold Response (1μM tracer): 1.43
O=C(CCOCCOCCOCCOCCNC(=O)CCc1ccc2n1[B-](F)(F)[N+]1=C(c3ccc[nH]3)C=CC1=C2)NCCCN1CCN(C2=Nc3cc(Cl)ccc3Nc3ccccc32)CC1 [Clozapine-a-2-NB590]			NanoBRET Fold Response (MCHR2, 0.1μM tracer): 0.98; NanoBRET Fold Response (MCHR2, 1μM tracer): 1.37
CN1CCN(C2=Nc3cc(Cl)ccc3Nc3ccc(CNC(=O)CCOCCOCCOCCOCCNC(=O)CCc4ccc5n4[B-](F)(F)[N+]4=C(c6ccc[nH]6)C=CC4=C5)cc32)CC1 [Clozapine-b-2-NB590]			NanoBRET Fold Response (MCHR2, 0.1μM tracer): 1.00; NanoBRET Fold Response (MCHR2, 1μM tracer): 0.97
CN1CCN(C2=Nc3cc(Cl)ccc3N(CC(=O)NCCOCCOCCOCCOCCNC(=O)CCc3ccc4n3[B-](F)(F)[N+]3=C(c5ccc[nH]5)C=CC3=C4)c3ccccc32)CC1 [Clozapine-c-2-NB590]			NanoBRET Fold Response (MCHR2, 0.1μM tracer): 1.06; NanoBRET Fold Response (MCHR2, 1μM tracer): 1.01
O=C(CCOCCOCCOCCOCCNC(=O)CCc1ccc2n1[B-](F)(F)[N+]1=C(c3ccc[nH]3)C=CC1=C2)NCCCN1CCN(C2=Nc3ccccc3Oc3ccc(Cl)cc32)CC1 [Loxapine-a-2-NB590]	1.02	1.12	
COc1ccccc1N1CCN(CCCCN2C(=O)c3ccc(CNC(=O)CCOCCOCCOCCOCCNC(=O)CCc4ccc5n4[B-](F)(F)[N+]4=C(c6ccc[nH]6)C=CC4=C5)cc3C2=O)CC1 [NAN-190-2-NB590]	0.99	0.94	
COc1ccccc1N1CCN(CCCCN2C(=O)c3ccc(CNC(=O)CCOCCNC(=O)c4ccc(CNC(=O)CCc5ccc6n5[B-](F)(F)[N+]5=C(c7ccc[nH]7)C=CC5=C6)cc4)cc3C2=O)CC1 [NAN-190-3-NB590]	1.09	0.72	
O=C(CCc1ccc2n1[B-](F)(F)[N+]1=C(c3ccc[nH]3)C=CC1=C2)NCc1ccc(C(=O)NCCOCCC(=O)N[C@@H]2CC[C@@]3(O)[C@H]4Cc5ccc(O)c6c5[C@@]3(CCN4CC3CC3)[C@H]2O6)cc1 [Naltrexone-3-NB590]	1.10	1.01	
Cc1cc2c(s1)Nc1ccccc1N=C2N1CCN(CCCNC(=O)CCOCCOCCOCCOCCNC(=O)CCc2ccc3n2[B-](F)(F)[N+]2=C(c4ccc[nH]4)C=CC2=C3)CC1 [Olanzapine-a-2-NB590]	0.98	1.01	
O=C(CCc1ccc2n1[B-](F)(F)[N+]1=C(c3ccc[nH]3)C=CC1=C2)NCc1ccc(C(=O)NCCOCCOCCNCC(O)COc2cccc3ccccc23)cc1 (stereo not shown) [Propranolol-3-NB590]			NanoBRET Fold Response (MCHR2, 0.1μM): 0.91; NanoBRET Fold Response (MCHR2, 1μM): 1.02
O=C(CCc1ccc2n1[B-](F)(F)[N+]1=C(c3ccc[nH]3)C=CC1=C2)NCCOCCOCCNC(=O)OCCOCCN1CCN(C2=Nc3ccccc3Sc3ccccc32)CC1 [Quetiapine-a-2-NB590]	1.03	0.74	
Cc1nc2n(c(=O)c1CCN1CCC(c3noc4cc(F)ccc34)CC1)CCCC2OC(=O)NCCOCCOCCOCCOCCNC(=O)CCc1ccc2n1[B-](F)(F)[N+]1=C(c3ccc[nH]3)C=CC1=C2 (stereo not shown) [Risperidone-2-NB590]	0.96	0.97	
CC(C)N(CC[C@H](c1ccccc1)c1cc(CCNC(=O)CCOCCOCCOCCOCCNC(=O)CCc2ccc3n2[B-](F)(F)[N+]2=C(c4ccc[nH]4)C=CC2=C3)ccc1O)C(C)C [Tolterodine-2-NB590]	1.59	1.08	
CC(C)N(CC[C@H](c1ccccc1)c1cc(CCNC(=O)c2ccc(CNC(=O)CCc3ccc4n3[B-](F)(F)[N+]3=C(c5ccc[nH]5)C=CC3=C4)cc2)ccc1O)C(C)C [Tolterodine-BZ-NB590]	0.93	1.02	
CCCn1c(=O)c2[nH]c(-c3ccc(OCC(=O)NCCNC(=O)CCOCCNC(=O)c4ccc(CNC(=O)CCc5ccc6n5[B-](F)(F)[N+]5=C(c7ccc[nH]7)C=CC5=C6)cc4)cc3)nc2n(CCC)c1=O [XAC-3-NB590]	0.96	0.97	
